Experimental data: publication PMC8051587 (ACS chemical biology, 2020)
Several values for one entry are separate records, joined by “and”; a condition that tells them apart may be missing. Equal entries are not always repeated. Where two headings read alike, the source gives them in different places.

Legend:
A/WSN/33 M2 N31S virus = type: cell-based, influenza A virus; conditions: for EC50: read-out: EC50 ± SD
[1] = tested on: A/WSN/33 virus (with naturally occurring M2 N31); test: microbe, parasite or virus in culture; type: cell-based; conditions: for EC50: read-out: EC50 ± SD
[2] = biological target: T1, full-length A/Udorn/72 M2 S31N (Influenza A virus, UniProt P0DOF5, S31N)
[3] = biological target: T1, full-length A/Udorn/72 M2 S31N; conditions: cited from earlier work
[4] = CPE inhibition assay, MDCK cells, amantadine-resistant A/WSN/33 (M2 N31)

With c1csc(-c2cc(CNC34CC5CC(CC(C5)C3)C4)on2)c1 [Compound 6] the “EC50 ± SD” value (A/WSN/33 M2 N31S virus) was “not active”, the EC50 [1, 4] was 153 nM and the “Blockage Eliminated in Wash Out(%)” value [2] was 6.8 ± 1.2%. The Kd [2] was 7500 ± 300 nM, the “Percent Block” value [2] was 99.2% and 99 ± 1% and the kon [2] was 2280 ± 150 M⁻¹ s⁻¹. For the same compound, the IC50 ([3]; read-out: IC50 in TEVC with M2 S31N, previously reported) was 16000 nM and the Kd ([3]; read-out: Kd (literature value, footnote g), footnote to the Kd value, ref [3]) was 16000 nM.

With NC12CC3CC(CC(C3)C1)C2 [Amantadine, amantadine] the EC50 (A/WSN/33 M2 N31S virus) was 250 ± 70 nM and the “EC50 ± SD” value [1, 4] was “not active”.

With CCOC(=O)C1=C[C@@H](OC(CC)CC)[C@H](NC(C)=O)[C@@H](N)C1 [Oseltamivir] the EC50 (A/WSN/33 M2 N31S virus) was 30 ± 20 nM and the EC50 ([1]; Influenza A virus, WSN, MDCK) was 10 ± 10 nM.
